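Following 48 hours of exposure in 96-well plates, responses at five concentrations were used to interpolate endpoints linearly. TGI: concentration producing complete growth inhibition.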

What all share (assay): DTP human tumour cell line panel, 48 h
Experiment [1] relates to IGROV1 ovarian.
For experiment [2], the system named is OVCAR-5 ovarian.
For experiment [3], the system named is SN12C renal.
Experiment [4] concerns HS 578T breast.
Experiment [5] deals with SNB-75 CNS.
Experiment [6] relates to MDA-MB-231 breast.
For experiment [7], the system named is EKVX NSCLC.
The subject of experiment [8] is HCT-15 colon.
For experiment [9], the system named is OVCAR-8 ovarian.
In experiment [10] the test system is OVCAR-4 ovarian.
In experiment [11] the test system is RXF 393 renal.
The test system of experiment [12] is NCI-H460 lung.
For experiment [13], the system named is MOLT-4 leukemia.
Experiment [14] has as its system SK-OV-3 ovarian.
Experiment [15] concerns SK-MEL-28 melanoma.
Experiment [16] concerns UO-31 renal.
In experiment [17] the test system is MALME-3M melanoma.
The test system of experiment [18] is CCRF-CEM leukemia.
Experiment [19] deals with A498 renal.

A word on the TGI: it is the concentration giving total growth inhibition. Higher therefore signals less potent growth arrest. For the compound `O=c1c2cn[nH]c2nc2scc(-c3ccc(Cl)cc3)n12`, the TGI in experiment [1], in experiment [2], in experiment [3], in experiment [4], in experiment [5] and in experiment [6] was over 100 µM each time. Further, the TGI in experiment [7], in experiment [8], in [9], in experiment [10], in [11] and in experiment [12] was over 100 µM in each case. Moreover, the TGI in experiment [13], in [14], in experiment [15], in experiment [16], in experiment [17] and in [18] was over 100 µM throughout.
Take `O=C(CNC(=O)OCc1ccccc1)NCCCCC(NC(=O)OCc1ccccc1)C(=O)NC(CCCCNC(=O)CNC(=O)OCc1ccccc1)C(=O)OCc1ccccc1` (stereo not given): the TGI in [1], in [2], in experiment [3], in experiment [5], in [6] and in [8] was over 62.5 µM each time. Further, the TGI in [9], in experiment [19], in experiment [10], in experiment [12], in [13] and in [15] was over 62.5 µM throughout. Moreover, the TGI in [16], in experiment [17] and in [18] was over 62.5 µM throughout.
With `CC(=O)O[C@H]1CCn2c3c(c(C)c21)C(=O)C(N1CC1)=C(C)C3=O`, the TGI in experiment [1], in experiment [2], in experiment [3], in [4], in experiment [5] and in experiment [6] was over 10 µM in each case. In addition, the TGI in [7], in experiment [8], in experiment [9], in experiment [10], in [12] and in experiment [13] was over 10 µM throughout. The TGI in experiment [14], in experiment [17] and in experiment [18] was over 10 µM throughout.
Turning to `O=c1oc2c(ccc3ccccc32)cc1C1=CSC2=NCCN12`, the TGI in experiment [1], in experiment [3], in experiment [4], in experiment [5], in experiment [6] and in [7] was over 100 µM in each case. Further, the TGI in experiment [8], in experiment [9], in [10], in [11], in [12] and in experiment [13] was over 100 µM in each case. In addition, the TGI in [14], in experiment [15], in [16], in [17] and in experiment [18] was over 100 µM throughout.
As to `O=C(Cc1ccccc1)NNc1nc(NNC(=O)c2ccncc2)nc(Nc2cccc(Cl)c2)n1`, the TGI in experiment [1], in experiment [3], in experiment [4], in experiment [5], in experiment [6] and in [7] was over 10 µM in each case. Moreover, the TGI in [8], in experiment [9], in [10], in experiment [12], in experiment [13] and in experiment [14] was over 10 µM in each case. Moreover, the TGI in experiment [15], in experiment [17] and in experiment [18] was over 10 µM throughout.
As for `O=C1[C@@H]2C[C@@H](O)CN2C(=O)c2ccccc2N1CCCO`, the TGI in [1], in [2], in experiment [3], in experiment [4], in experiment [5] and in [6] was over 100 µM in each case. Besides, the TGI in [7], in [8], in experiment [9], in experiment [19], in experiment [12] and in experiment [13] was over 100 µM each time. For the same compound, the TGI in [14], in [15] and in experiment [16] was over 100 µM in each case.
`CC(C)CC(NC(=O)C(CCI)Cc1ccccc1)C(=O)Nc1ccccc1` (stereo not given): the TGI in experiment [1], in experiment [2], in experiment [3], in [5], in experiment [6] and in experiment [7] was over 100 µM each time. The TGI in [8], in [9], in experiment [19], in [10], in experiment [11] and in experiment [12] was over 100 µM throughout. For the same compound, the TGI is 83.6 µM in [13]; over 100 µM in experiment [14]; over 100 µM in [15]; 84.7 µM in experiment [16]; over 100 µM in experiment [17]; over 100 µM in experiment [18].
For the compound `COC(=O)C1CCC(=O)N1C(c1ccccc1)c1cc(OC)c(OC)c(OC)c1` (stereo not given), the TGI in [1], in experiment [2], in experiment [3], in experiment [6], in experiment [7] and in experiment [8] was over 100 µM in each case. For the same compound, the TGI in experiment [9] was over 100 µM; in [19], over 100 µM; in experiment [10], over 100 µM; in experiment [11], over 100 µM; in experiment [12], over 100 µM; in [13], 89.3 µM. For the same compound, the TGI in [14], in experiment [15], in experiment [16], in experiment [17] and in [18] was over 100 µM throughout.

The record behind these values is PubChem BioAssay (NCI).
